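GI50 is the concentration that inhibits growth by half. TGI: total growth inhibition.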
Key:
Experiment in all cases: NCI anticancer screen, dose series, 384-well format
OVCAR-4 ovarian = tested on: OVCAR-4 ovarian
RPMI-8226 leukemia = tested on: RPMI-8226 leukemia
IGROV1 ovarian = tested on: IGROV1 ovarian
BT-549 breast = tested on: BT-549 breast
COLO 205 colon = tested on: COLO 205 colon
SW-620 colon = tested on: SW-620 colon
SNB-19 CNS = tested on: SNB-19 CNS
HCC-2998 colon = tested on: HCC-2998 colon
EKVX NSCLC = tested on: EKVX NSCLC
RXF 393 renal = tested on: RXF 393 renal
HL-60(TB) leukemia = tested on: HL-60(TB) leukemia
HCT-15 colon = tested on: HCT-15 colon
OVCAR-8 ovarian = tested on: OVCAR-8 ovarian
DU-145 prostate = tested on: DU-145 prostate
SF-539 CNS = tested on: SF-539 CNS
CCRF-CEM leukemia = tested on: CCRF-CEM leukemia
SN12C renal = tested on: SN12C renal
NCI-H226 lung = tested on: NCI-H226 lung
U251 glioblastoma = tested on: U251 glioblastoma
A549 NSCLC = tested on: A549 NSCLC
ACHN renal = tested on: ACHN renal
SF-295 CNS = tested on: SF-295 CNS
UACC-257 melanoma = tested on: UACC-257 melanoma
NCI-H322M lung = tested on: NCI-H322M lung
SK-MEL-28 melanoma = tested on: SK-MEL-28 melanoma
MOLT-4 leukemia = tested on: MOLT-4 leukemia
SF-268 CNS = tested on: SF-268 CNS
NCI-H23 lung = tested on: NCI-H23 lung
SK-MEL-2 melanoma = tested on: SK-MEL-2 melanoma
CAKI-1 renal = tested on: CAKI-1 renal
SNB-75 CNS = tested on: SNB-75 CNS
SK-MEL-5 melanoma = tested on: SK-MEL-5 melanoma
MCF7 breast = tested on: MCF7 breast
HOP-92 NSCLC = tested on: HOP-92 NSCLC
A498 renal = tested on: A498 renal
786-0 renal = tested on: 786-0 renal
HT29 colon = tested on: HT29 colon
SR leukemia = tested on: SR leukemia
SK-OV-3 ovarian = tested on: SK-OV-3 ovarian
M14 melanoma = tested on: M14 melanoma
TK-10 renal = tested on: TK-10 renal
UACC-62 melanoma = tested on: UACC-62 melanoma
HOP-62 NSCLC = tested on: HOP-62 NSCLC
MDA-MB-231 breast = tested on: MDA-MB-231 breast
OVCAR-3 ovarian = tested on: OVCAR-3 ovarian
NCI-H460 NSCLC = tested on: NCI-H460 NSCLC
PC-3 prostate = tested on: PC-3 prostate
NCI-H522 lung = tested on: NCI-H522 lung
MDA-MB-435 melanoma = tested on: MDA-MB-435 melanoma
KM12 colon = tested on: KM12 colon
MALME-3M melanoma = tested on: MALME-3M melanoma
T-47D breast = tested on: T-47D breast
OVCAR-5 ovarian = tested on: OVCAR-5 ovarian
NCI/ADR-RES ovarian = tested on: NCI/ADR-RES ovarian
HS 578T breast = tested on: HS 578T breast
MDA-MB-468 breast = tested on: MDA-MB-468 breast

For `O=P(O)(O)C(O)(Cn1ccnc1)P(=O)(O)O`, which GI50 (OVCAR-4 ovarian) is on record?
The GI50 was > 100 µM.

What about the TGI (OVCAR-4 ovarian) of the same molecule?
The TGI was > 100 µM.

What about the GI50 (RPMI-8226 leukemia) of the same molecule?
The GI50 was > 100 µM.

What about the TGI (RPMI-8226 leukemia) of the same molecule?
Its TGI is > 100 µM.

What about the GI50 (IGROV1 ovarian) of the same molecule?
Its GI50 is > 100 µM.

And the TGI (IGROV1 ovarian)?
Its TGI is > 100 µM.

And the GI50 (BT-549 breast)?
Its GI50 is > 100 µM.

What about the TGI (BT-549 breast) of the same molecule?
Its TGI is > 100 µM.

What about the GI50 (COLO 205 colon) of the same molecule?
The GI50 was > 100 µM.

And the TGI (COLO 205 colon)?
The TGI was > 100 µM.

What about the GI50 (SW-620 colon) of the same molecule?
The GI50 was > 100 µM.

What about the TGI (SW-620 colon) of the same molecule?
The TGI was > 100 µM.

What about the GI50 (SNB-19 CNS) of the same molecule?
Its GI50 is > 100 µM.

What about the TGI (SNB-19 CNS) of the same molecule?
The TGI was > 100 µM.

What about the GI50 (HCC-2998 colon) of the same molecule?
Its GI50 is > 100 µM.

And the TGI (HCC-2998 colon)?
The TGI was > 100 µM.

And the GI50 (EKVX NSCLC)?
The GI50 was > 100 µM.

What about the TGI (EKVX NSCLC) of the same molecule?
Its TGI is > 100 µM.

And the GI50 (RXF 393 renal)?
The GI50 was > 100 µM.

What about the TGI (RXF 393 renal) of the same molecule?
The TGI was > 100 µM.

And the GI50 (HL-60(TB) leukemia)?
Its GI50 is > 100 µM.

And the TGI (HL-60(TB) leukemia)?
The TGI was > 100 µM.

And the GI50 (HCT-15 colon)?
The GI50 was > 100 µM.

What about the TGI (HCT-15 colon) of the same molecule?
Its TGI is > 100 µM.

And the GI50 (OVCAR-8 ovarian)?
The GI50 was > 100 µM.

What about the TGI (OVCAR-8 ovarian) of the same molecule?
The TGI was > 100 µM.

And the GI50 (DU-145 prostate)?
The GI50 was > 100 µM.

What about the TGI (DU-145 prostate) of the same molecule?
The TGI was > 100 µM.

What about the GI50 (SF-539 CNS) of the same molecule?
The GI50 was > 100 µM.

What about the TGI (SF-539 CNS) of the same molecule?
The TGI was > 100 µM.

What about the GI50 (CCRF-CEM leukemia) of the same molecule?
Its GI50 is > 100 µM.

What about the TGI (CCRF-CEM leukemia) of the same molecule?
The TGI was > 100 µM.

What about the GI50 (SN12C renal) of the same molecule?
Its GI50 is > 100 µM.

What about the TGI (SN12C renal) of the same molecule?
The TGI was > 100 µM.

What about the GI50 (NCI-H226 lung) of the same molecule?
The GI50 was > 100 µM.

What about the TGI (NCI-H226 lung) of the same molecule?
Its TGI is > 100 µM.

What about the GI50 (U251 glioblastoma) of the same molecule?
Its GI50 is > 100 µM.

And the TGI (U251 glioblastoma)?
Its TGI is > 100 µM.

What about the GI50 (A549 NSCLC) of the same molecule?
Its GI50 is > 100 µM.

What about the TGI (A549 NSCLC) of the same molecule?
The TGI was > 100 µM.

And the GI50 (ACHN renal)?
Its GI50 is > 100 µM.

And the TGI (ACHN renal)?
The TGI was > 100 µM.

What about the GI50 (SF-295 CNS) of the same molecule?
The GI50 was > 100 µM.

And the TGI (SF-295 CNS)?
The TGI was > 100 µM.

What about the GI50 (UACC-257 melanoma) of the same molecule?
Its GI50 is > 100 µM.

What about the TGI (UACC-257 melanoma) of the same molecule?
The TGI was > 100 µM.

What about the GI50 (NCI-H322M lung) of the same molecule?
The GI50 was > 100 µM.

And the TGI (NCI-H322M lung)?
The TGI was > 100 µM.

And the GI50 (SK-MEL-28 melanoma)?
Its GI50 is > 100 µM.

What about the TGI (SK-MEL-28 melanoma) of the same molecule?
The TGI was > 100 µM.

What about the GI50 (MOLT-4 leukemia) of the same molecule?
The GI50 was > 100 µM.

What about the TGI (MOLT-4 leukemia) of the same molecule?
Its TGI is > 100 µM.

And the GI50 (SF-268 CNS)?
The GI50 was > 100 µM.

And the TGI (SF-268 CNS)?
The TGI was > 100 µM.

What about the GI50 (NCI-H23 lung) of the same molecule?
Its GI50 is > 100 µM.

What about the TGI (NCI-H23 lung) of the same molecule?
The TGI was > 100 µM.

What about the GI50 (SK-MEL-2 melanoma) of the same molecule?
The GI50 was > 100 µM.

What about the TGI (SK-MEL-2 melanoma) of the same molecule?
Its TGI is > 100 µM.

And the GI50 (CAKI-1 renal)?
Its GI50 is > 100 µM.

What about the TGI (CAKI-1 renal) of the same molecule?
Its TGI is > 100 µM.

What about the GI50 (SNB-75 CNS) of the same molecule?
The GI50 was > 100 µM.

And the TGI (SNB-75 CNS)?
Its TGI is > 100 µM.

And the GI50 (SK-MEL-5 melanoma)?
Its GI50 is > 100 µM.

And the TGI (SK-MEL-5 melanoma)?
The TGI was > 100 µM.

And the GI50 (MCF7 breast)?
The GI50 was > 100 µM.

And the TGI (MCF7 breast)?
Its TGI is > 100 µM.

And the GI50 (HOP-92 NSCLC)?
The GI50 was > 100 µM.

What about the TGI (HOP-92 NSCLC) of the same molecule?
Its TGI is > 100 µM.

And the GI50 (A498 renal)?
The GI50 was > 100 µM.

What about the TGI (A498 renal) of the same molecule?
The TGI was > 100 µM.

And the GI50 (786-0 renal)?
The GI50 was > 100 µM.

And the TGI (786-0 renal)?
The TGI was > 100 µM.

What about the GI50 (HT29 colon) of the same molecule?
Its GI50 is > 100 µM.

What about the TGI (HT29 colon) of the same molecule?
Its TGI is > 100 µM.

And the GI50 (SR leukemia)?
Its GI50 is > 100 µM.

What about the TGI (SR leukemia) of the same molecule?
The TGI was > 100 µM.

And the GI50 (SK-OV-3 ovarian)?
Its GI50 is > 100 µM.

What about the TGI (SK-OV-3 ovarian) of the same molecule?
Its TGI is > 100 µM.

And the GI50 (M14 melanoma)?
Its GI50 is > 100 µM.

And the TGI (M14 melanoma)?
Its TGI is > 100 µM.

What about the GI50 (TK-10 renal) of the same molecule?
The GI50 was > 100 µM.

And the TGI (TK-10 renal)?
Its TGI is > 100 µM.

What about the GI50 (UACC-62 melanoma) of the same molecule?
The GI50 was > 100 µM.

And the TGI (UACC-62 melanoma)?
The TGI was > 100 µM.

What about the GI50 (HOP-62 NSCLC) of the same molecule?
Its GI50 is > 100 µM.

What about the TGI (HOP-62 NSCLC) of the same molecule?
The TGI was > 100 µM.

And the GI50 (MDA-MB-231 breast)?
Its GI50 is > 100 µM.

And the TGI (MDA-MB-231 breast)?
The TGI was > 100 µM.

What about the GI50 (OVCAR-3 ovarian) of the same molecule?
The GI50 was > 100 µM.

And the TGI (OVCAR-3 ovarian)?
The TGI was > 100 µM.

What about the GI50 (NCI-H460 NSCLC) of the same molecule?
The GI50 was > 100 µM.

And the TGI (NCI-H460 NSCLC)?
The TGI was > 100 µM.

And the GI50 (PC-3 prostate)?
Its GI50 is > 100 µM.

What about the TGI (PC-3 prostate) of the same molecule?
Its TGI is > 100 µM.

And the GI50 (NCI-H522 lung)?
Its GI50 is > 100 µM.

What about the TGI (NCI-H522 lung) of the same molecule?
The TGI was > 100 µM.

What about the GI50 (MDA-MB-435 melanoma) of the same molecule?
The GI50 was > 100 µM.

What about the TGI (MDA-MB-435 melanoma) of the same molecule?
The TGI was > 100 µM.

What about the GI50 (KM12 colon) of the same molecule?
The GI50 was > 100 µM.

What about the TGI (KM12 colon) of the same molecule?
Its TGI is > 100 µM.

What about the GI50 (MALME-3M melanoma) of the same molecule?
The GI50 was > 100 µM.

What about the TGI (MALME-3M melanoma) of the same molecule?
The TGI was > 100 µM.

What about the GI50 (T-47D breast) of the same molecule?
The GI50 was > 100 µM.

And the TGI (T-47D breast)?
The TGI was > 100 µM.

And the GI50 (OVCAR-5 ovarian)?
Its GI50 is > 100 µM.

What about the TGI (OVCAR-5 ovarian) of the same molecule?
The TGI was > 100 µM.

What about the GI50 (NCI/ADR-RES ovarian) of the same molecule?
The GI50 was > 100 µM.

What about the TGI (NCI/ADR-RES ovarian) of the same molecule?
Its TGI is > 100 µM.

What about the GI50 (HS 578T breast) of the same molecule?
The GI50 was > 100 µM.

What about the TGI (HS 578T breast) of the same molecule?
Its TGI is > 100 µM.

What about the GI50 (MDA-MB-468 breast) of the same molecule?
Its GI50 is > 100 µM.

What about the TGI (MDA-MB-468 breast) of the same molecule?
Its TGI is > 100 µM.

Source: PubChem BioAssay (NCI)
